From ChEMBL document CHEMBL5233253, “β-Lactams as promising anticancer agents: Molecular hybrids, structure activity relationships and potential targets” (Eur J Med Chem, 2020)
Values belong to the compound of their own block, whether it stands above or below them.

Key:
[1] = molecular target: Heat shock protein HSP90 (Homo sapiens, UniProt P07900+P08238); test: Inhibition of HSP90 (unknown origin); assay type: protein assay
[2] = molecular target: Tubulin; test: Inhibition of tubulin (unknown origin) polymerization incubated for 5 mins by spectrophotometer analysis; assay type: protein-complex assay, Homo sapiens
[3] = tested on: MCF7; test: Cytotoxicity against human MCF7 cells assessed as inhibition of cell growth by MTT assay; assay type: functional, cell-based
[4] = tested on: A549; test: Cytotoxicity against human A549 cells assessed as inhibition of cell growth by MTT assay; assay type: functional, cell-based
[5] = tested on: HEK293; test: Antiproliferative activity against human HEK293 cells assessed as inhibition of cell growth measured after 48 hrs by MTT assay; assay type: functional, cell-based; conditions: HEK293, 48 h
[6] = Inhibition of Klebsiella pneumoniae beta Metallo-beta-lactamase IMP-28
[7] = tested on: CCRF-CEM; test: Cytotoxicity against human CEM cells assessed reduction in cell viability; assay type: functional, cell-based
[8] = tested on: L1210; test: Cytotoxicity against mouse L1210 cells assessed as reduction in cell viability; assay type: functional, cell-based
[9] = tested on: HT-1080; test: Cytotoxicity against human HT-1080 cells assessed reduction in cell viability; assay type: functional, cell-based
[10] = Anti-keratosis activity in vitamin-A-deficient hamster trachea in presence of beta-lactamase; assay type: functional, tissue-based, Cricetulus griseus

IC50 [1]: 5.6 µM
Structure (SMILES): CCc1cc([C@@H]2CC(=O)N2c2ccc3c(c2)OCCO3)c(O)cc1O

IC50 [2]: 2.26 µM
Structure (SMILES): COc1cc(N2C(=O)[C@H](c3cccs3)[C@H]2c2cccc(N=[N+]=[N-])c2)cc(OC)c1OC

Structure (SMILES): CC(O)C1C(=O)NC1OC(=O)/C=C/c1ccc(N)cc1 (centres undefined)
IC50 [3]: 1.59 µM | IC50 [4]: 1.59 µM

Structure (SMILES): C[C@H](CCC(=O)OCc1cn([C@@H]2C(=O)N(CCN3C(=O)[C@@H](n4cc(COC(=O)CC[C@@H](C)[C@H]5CC[C@H]6[C@@H]7[C@H](O)C[C@@H]8C[C@H](O)CC[C@]8(C)[C@H]7C[C@H](O)[C@]56C)nn4)[C@H]3c3ccccc3)[C@@H]2c2ccccc2)nn1)[C@H]1CC[C@H]2[C@@H]3CC[C@@H]4C[C@H](O)CC[C@]4(C)[C@H]3C[C@H](O)[C@]12C
IC50 [5]: 10 µM

IC50 [6]: 0.34 µM
Structure (SMILES): O=C(OCc1ccccc1)[C@H]1[C@@H](Cc2ccc(O)cc2)C(=O)N1C(=O)c1ccccc1

Structure (SMILES): Cc1cn(CCCN2C(=O)C(OCc3ccccc3)C2c2ccc(Br)cc2)c(=O)n(CCCN2C(=O)C(OCc3ccccc3)C2c2ccc(Br)cc2)c1=O (centres undefined)
IC50 [7]: 3.4 µM | IC50 [8]: 4.1 µM

Structure (SMILES): CC(O)C1C(=O)NC1OC(=O)/C=C/c1ccc(Cl)cc1 (centres undefined)
IC50 [3]: 1.59 µM | IC50 [4]: 1.59 µM

IC50 [6]: 0.34 µM
Structure (SMILES): O=C(O)c1ccc(COC(=O)[C@H]2[C@@H](Cc3ccccc3)C(=O)N2C(=O)Cc2cccc(C(=O)OCc3ccccc3)c2)cc1

IC50 [6]: 0.34 µM
Structure (SMILES): O=C(OCc1ccccc1)c1cccc(CC(=O)N2C(=O)[C@H](Cc3ccccc3)[C@@H]2C(=O)OCc2ccccc2)c1

Structure (SMILES): COc1ccc(/C=C/C(=O)OC2NC(=O)C2C(C)O)cc1 (centres undefined)
IC50 [3]: 1.59 µM | IC50 [4]: 1.59 µM

Structure (SMILES): C[C@H](CCC(=O)NCc1cn([C@@H]2C(=O)N(CCN3C(=O)[C@@H](n4cc(CNC(=O)CC[C@@H](C)[C@H]5CC[C@H]6[C@@H]7CC[C@@H]8C[C@H](O)CC[C@]8(C)[C@H]7C[C@H](O)[C@]56C)nn4)[C@H]3c3ccccc3)[C@@H]2c2ccccc2)nn1)[C@H]1CC[C@H]2[C@@H]3CC[C@@H]4C[C@H](O)CC[C@]4(C)[C@H]3C[C@H](O)[C@]12C
IC50 [5]: 500 µM

Structure (SMILES): C=C(C)[C@H](C(=O)OC(c1ccccc1)c1ccccc1)N1C(=O)/C(=C/C(=O)OC(C)(C)C)[C@H]1SSc1nc2ccccc2s1
IC50 [9]: 0.4 µM

IC50 [6]: 0.34 µM
Structure (SMILES): O=C(OCc1ccccc1)c1cccc(CC(=O)N2C(=O)[C@H](Cc3ccc(O)cc3)[C@@H]2C(=O)OCc2ccccc2)c1

Structure (SMILES): CC(O)C1C(=O)NC1OC(=O)/C=C/c1ccccc1 (centres undefined)
IC50 [3]: 1.59 µM | IC50 [4]: 1.59 µM

Structure (SMILES): CC(O)C1C(=O)NC1OC(=O)/C=C/c1ccc(Br)cc1 (centres undefined)
IC50 [3]: 1.59 µM | IC50 [4]: 1.59 µM

EC50 [10]: 0.0391 nM
Structure (SMILES): CC1=C(/C=C/C(C)=C/C=C/C(C)=C/C(=O)OCC2=C(C(=O)O)N3C(=O)[C@@H](NC(=O)COc4ccccc4)[C@H]3[S+]([O-])C2)C(C)(C)CCC1 (some centres undefined)

Structure (SMILES): C[C@H](CCC(=O)NCc1cn([C@@H]2C(=O)N(CCN3C(=O)[C@@H](n4cc(CNC(=O)CC[C@@H](C)[C@H]5CC[C@H]6[C@@H]7[C@H](O)C[C@@H]8C[C@H](O)CC[C@]8(C)[C@H]7C[C@H](O)[C@]56C)nn4)[C@H]3c3ccccc3)[C@@H]2c2ccccc2)nn1)[C@H]1CC[C@H]2[C@@H]3CC[C@@H]4C[C@H](O)CC[C@]4(C)[C@H]3C[C@H](O)[C@]12C
IC50 [5]: 100 µM

Structure (SMILES): C[C@H](CCC(=O)OCc1cn([C@@H]2C(=O)N(CCN3C(=O)[C@@H](n4cc(COC(=O)CC[C@@H](C)[C@H]5CC[C@H]6[C@@H]7CC[C@@H]8C[C@H](O)CC[C@]8(C)[C@H]7C[C@H](O)[C@]56C)nn4)[C@H]3c3ccccc3)[C@@H]2c2ccccc2)nn1)[C@H]1CC[C@H]2[C@@H]3CC[C@@H]4C[C@H](O)CC[C@]4(C)[C@H]3C[C@H](O)[C@]12C
IC50 [5]: > 1000 µM
